Experimental findings from patent US9212187B2, “Nitrogen-containing compounds and pharmaceutical compositions thereof for the treatment of atrial fibrillation” (OTSUKA PHARMACEUTICAL CO., LTD., priority 2009, dated 2015) are described below.

Structures can show the parent of a compound that is named as a salt.

One may read the IC50 as the midpoint of a concentration-inhibition curve.

human Kv1.5 channels, sequence (P22460 whole entry): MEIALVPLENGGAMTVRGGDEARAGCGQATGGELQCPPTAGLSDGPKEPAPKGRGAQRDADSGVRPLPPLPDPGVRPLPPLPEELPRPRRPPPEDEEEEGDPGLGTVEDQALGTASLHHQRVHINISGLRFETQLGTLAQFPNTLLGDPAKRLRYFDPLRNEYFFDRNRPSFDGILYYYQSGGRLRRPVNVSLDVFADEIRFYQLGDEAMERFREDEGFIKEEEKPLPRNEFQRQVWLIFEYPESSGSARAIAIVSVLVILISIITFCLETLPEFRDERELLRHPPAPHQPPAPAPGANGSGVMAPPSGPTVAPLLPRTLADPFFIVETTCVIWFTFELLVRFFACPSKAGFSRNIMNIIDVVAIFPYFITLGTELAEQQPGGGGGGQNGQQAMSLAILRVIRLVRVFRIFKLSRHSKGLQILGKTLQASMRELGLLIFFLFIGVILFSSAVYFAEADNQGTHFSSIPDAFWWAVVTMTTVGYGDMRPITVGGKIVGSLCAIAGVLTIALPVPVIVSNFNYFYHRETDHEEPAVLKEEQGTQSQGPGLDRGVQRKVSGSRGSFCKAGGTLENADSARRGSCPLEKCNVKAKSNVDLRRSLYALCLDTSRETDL

The target in this assay is human Kv1.5 channels (Homo sapiens (Human), UniProt P22460). The experiment in a line: Measurement of human Kv1.5 channel current by whole-cell patch clamp method (human Kv1.5-expressing CHO-K1 cell line), Pharmacological Test 1. The class given is cell-based. As to conditions: First Invention, Table 2, human Kv1.5-expressing CHO-K1 cells, step end current at +40 mV. As to the method:
Pharmacological Test 1 (1) Production of Human Kv1.5-Expressing CHO-K1 Cell Lines
CHO-K1 cell lines stably expressing human Kv1.5 channels were prepared in the following manner.
Full-length human Kv1.5 cDNA was cloned from a human heart cDNA library (produced by Stratagene). The obtained human Kv1.5 sequence corresponds to the sequence described in FASEB J. 5, 331-337 (1991).
The obtained human Kv1.5 cDNA was inserted into a plasmid encoding a CMV promoter and a G418 resistance marker to produce a Kv1.5 expression vector. The human Kv1.5 expression vector was transfected into CHO-K1 cells by the lipofectamine method. After culturing the cells in an F-12 medium (produced by Invitrogen Corp.) containing 10% FBS (produced by Invitrogen Corp.) for 3 or 4 days, the medium was replaced with a FBS-containing F-12 medium that included 1,000 μg/ml of G418 (produced by Invitrogen Corp.), and single colonies were isolated. The amount of Kv1.5 channel expression in the single colonies was quantified at the mRNA level by RT-PCR and then quantified at the protein level by western blotting. Finally, the expressed current was analyzed by patch clamp method. […]
Depolarizing stimulation pulses were applied and ionic current was recorded by using a patch clamp amplifier (EPC-7 or EPC-7 PLUS, produced by HEKA) and a personal computer (manufactured by IBM Corp.) in which software for data acquisition and analysis of ion channel current (PULSE 8.77, produced by HEKA) was installed. The current was measured in the whole-cell configuration of the patch-clamp technique. […] Subsequently, the series resistance (Rs) between the pipette and the interior of the cell was measured and corrected. […]
While the membrane potential was holded at −80 mV, depolarizing pulses (−80 mV for 0.05 seconds→□□+40 mV for 0.2 seconds →□□−40 mV for 0.2 seconds→□□−80 mV for 0.05 seconds) were applied at a stimulation frequency of 1 Hz to measure Kv1.5 channel current. […] The current obtained during the pulse application was recorded as a current in the absence of the test compounds. […]
(In general: In patch-clamp work, channel activity is measured electrically.)
For `CCN1C(=O)C(C)(C)C(=O)N(C)c2cc(CN(CCn3cc(C)c4occc4c3=O)Cc3cccnc3COC)ccc21` [Example 318, 1-Ethyl-7-({N-(2-methoxymethylpyridin-3-ylmethyl)-N-[2-(7-methyl-4-oxo-4H-furo[3,2-c]pyridin-5-yl)ethyl]amino}methyl)-3,3,5-trimethyl-1,5-dihydrobenzo[b][1,4]diazepine-2,4-dione], half-maximal inhibition (IC50) required 2900 nM.

For `CCN1C(=O)C(C)(C)C(=O)N(C)c2cc(CN(CCn3ccc4oc(C)cc4c3=O)Cc3cccnc3COC)ccc21` [Example 317, 1-Ethyl-7-({N-(2-methoxymethylpyridin-3-ylmethyl)-N-[2-(2-methyl-4-oxo-4H-furo[3,2-c]pyridin-5-yl)ethyl]amino}methyl)-3,3,5-trimethyl-1,5-dihydrobenzo[b][1,4]diazepine-2,4-dione], the half-maximal inhibitory concentration (IC50) worked out at 630 nM.

As to `CCN1C(=O)C(C)(C)C(=O)N(C)c2cc(CN(CCc3cccnc3)C(=O)Cc3cn(C)c4ccccc34)ccc21` [Example 330, N-(1-Ethyl-3,3,5-trimethyl-2,4-dioxo-2,3,4,5-tetrahydro-1H-benzo[b][1,4]diazepin-7-ylmethyl)-2-(1-methyl-1H-indol-3-yl)-N-(2-pyridin-3-ylethyl)acetamide hydrochloride], half-maximal inhibition (IC50) required 860 nM.
